Assay results as given in PubChem BioAssay AID248 (DTP/NCI, 2004).
“And” between values parts separate entries of the source, which are not always exact repeats. Identical values can stand only once. Toxic doses and inconclusive results are not listed. Rule as the data show it: active = T/C of 150% or more; inactive = T/C below 125%.

System: L1210 leukemia ip in BDF1 mice, survival T/C
Experiment: NCI In Vivo Anticancer Drug Screen. Data for tumor model L1210 Leukemia (intraperitoneal) in B6D2F1 (BDF1) mice
Conditions: endpoint: mean survival time, higher = longer survival
Method in brief: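 Tumor was transplanted into mice, which were then dosed with test compound or vehicle alone. Survival was recorded for each group, and the treated figure was expressed relative to the control figure.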

[1] = dose: 100.0 mg/kg/injection, schedule: Q04DX002 (ip), vehicle: saline with Tween-80
[2] = dose: 100.0 mg/kg/injection, schedule: Q01DX009 (ip), vehicle: saline with Tween-80
[3] = dose: 200.0 mg/kg/injection, schedule: Q01DX009 (ip), vehicle: saline with Tween-80
[4] = dose: 400.0 mg/kg/injection, schedule: Q01DX009 (ip), vehicle: saline with Tween-80
[5] = dose: 50.0 mg/kg/injection, schedule: Q04DX003 (ip), vehicle: Klucel (hydroxypropylcellulose) (HPC)
[6] = dose: 100.0 mg/kg/injection, schedule: Q01DX001 (ip), vehicle: carboxymethylcellulose (CMC)
[7] = dose: 200.0 mg/kg/injection, schedule: Q01DX001 (ip), vehicle: carboxymethylcellulose (CMC)
[8] = dose: 100.0 mg/kg/injection, schedule: Q04DX003 (ip), vehicle: Klucel (hydroxypropylcellulose) (HPC)
[9] = dose: 200.0 mg/kg/injection, schedule: Q04DX003 (ip), vehicle: Klucel (hydroxypropylcellulose) (HPC)
[10] = dose: 400.0 mg/kg/injection, schedule: Q04DX003 (ip), vehicle: Klucel (hydroxypropylcellulose) (HPC)
[11] = dose: 100.0 mg/kg/injection, schedule: Q04DX003 (ip), vehicle: saline with Tween-80
[12] = dose: 200.0 mg/kg/injection, schedule: Q04DX003 (ip), vehicle: saline with Tween-80
[13] = dose: 400.0 mg/kg/injection, schedule: Q04DX003 (ip), vehicle: saline with Tween-80
[14] = dose: 50.0 mg/kg/injection, schedule: Q01DX009 (ip), vehicle: Klucel (hydroxypropylcellulose) (HPC)
[15] = dose: 100.0 mg/kg/injection, schedule: Q01DX009 (ip), vehicle: Klucel (hydroxypropylcellulose) (HPC)
[16] = dose: 200.0 mg/kg/injection, schedule: Q01DX009 (ip), vehicle: Klucel (hydroxypropylcellulose) (HPC)
[17] = dose: 400.0 mg/kg/injection, schedule: Q01DX009 (ip), vehicle: Klucel (hydroxypropylcellulose) (HPC)
[18] = dose: 100.0 mg/kg/injection, schedule: Q04DX002 (ip), vehicle: Klucel (hydroxypropylcellulose) (HPC)
[19] = dose: 200.0 mg/kg/injection, schedule: Q04DX002 (ip), vehicle: Klucel (hydroxypropylcellulose) (HPC)
[20] = dose: 400.0 mg/kg/injection, schedule: Q01DX001 (ip), vehicle: carboxymethylcellulose (CMC)
[21] = dose: 400.0 mg/kg/injection, schedule: Q04DX002 (ip), vehicle: Klucel (hydroxypropylcellulose) (HPC)

Measured: T/C

O=[N+]([O-])c1ccccc1NC1OC(CO)C(O)C1O (configuration not stated)
inactive: [1] 102 % of control | dose: 200.0 mg/kg/injection, schedule: Q04DX002 (ip), vehicle: saline with Tween-80 98 % of control | dose: 400.0 mg/kg/injection, schedule: Q04DX002 (ip), vehicle: saline with Tween-80 102 % of control

S=c1nc[nH]c2c1ncn2CN1CCCCC1
active: dose: 25.0 mg/kg/injection, schedule: Q01DX009 (ip), vehicle: other 151 % of control | dose: 50.0 mg/kg/injection, schedule: Q01DX009 (ip), vehicle: other 192 % of control
inactive: dose: 25.0 mg/kg/injection, schedule: Q01DX Z (ip), vehicle: carboxymethylcellulose (CMC) 109 % of control | dose: 50.0 mg/kg/injection, schedule: Q01DX Z (ip), vehicle: carboxymethylcellulose (CMC) 102 % of control | dose: 100.0 mg/kg/injection, schedule: Q01DX009 (ip), vehicle: other 116 % of control | dose: 100.0 mg/kg/injection, schedule: Q01DX Z (ip), vehicle: carboxymethylcellulose (CMC) 120 % of control | dose: 200.0 mg/kg/injection, schedule: Q01DX009 (ip), vehicle: other 102 % of control

CCCC1(CC)C(=O)N=C(N)NC1=O (configuration not stated)
inactive: dose: 25.0 mg/kg/injection, schedule: Q01DX001 (ip), vehicle: Klucel (hydroxypropylcellulose) (HPC) 95 % of control | dose: 50.0 mg/kg/injection, schedule: Q01DX001 (ip), vehicle: Klucel (hydroxypropylcellulose) (HPC) 104 % of control

CCCCC(C)C1(CC)C(=O)NC(=O)NC1=O (configuration not stated)
inactive: dose: 75.0 mg/kg/injection, schedule: Q01DX001 (ip), vehicle: saline 95 % of control

CCOc1ccccc1NC(=O)c1cccc(F)c1
inactive: [2] 101 % of control | [3] 104 % of control | [4] 101 % of control

CC[N+]1(CN2CCCCC2)CCCCC1
inactive: dose: 12.5 mg/kg/injection, schedule: Q04DX003 (ip), vehicle: Klucel (hydroxypropylcellulose) (HPC) 102 % of control | dose: 25.0 mg/kg/injection, schedule: Q04DX003 (ip), vehicle: Klucel (hydroxypropylcellulose) (HPC) 96 % of control | [5] 90 % of control

Cc1cccc(/C=N/N(C)C(N)=S)n1
inactive: [6] 102 % of control | [7] 106 % of control

Cc1ccc(S(=O)(=O)N(c2ccc(I)cc2F)S(=O)(=O)c2ccc(C)cc2)cc1
inactive: [8] 98 % of control | [9] 97 % of control | [10] 108 % of control

CC(C)(C)OC1C=CCCC1 (configuration not stated)
inactive: [11] 96 % of control | [12] 96 % of control | [13] 96 % of control

S=C(Nc1ccc(Cl)c(Cl)c1)SCc1ccc2c(c1)OCO2
inactive: dose: 37.5 mg/kg/injection, schedule: Q01DX009 (ip), vehicle: saline 120 % of control | dose: 75.0 mg/kg/injection, schedule: Q04DX003 (ip), vehicle: saline with Tween-80 101 % of control | dose: 150.0 mg/kg/injection, schedule: Q01DX009 (ip), vehicle: saline 102 % of control | dose: 150.0 mg/kg/injection, schedule: Q04DX003 (ip), vehicle: saline with Tween-80 104 % of control | dose: 300.0 mg/kg/injection, schedule: Q04DX003 (ip), vehicle: saline with Tween-80 123 % of control

CCCCC1=C(C)C(=O)OC1=O
inactive: [11] 95 % of control | [12] 95 % of control | [13] 103 % of control

CCOC(=O)c1cncc(C(=O)OCC)c1
inactive: [14] 100 % of control | [15] 100 % of control | [8] 101 % of control | [16] 104 % of control | [9] 92 % of control | [17] 112 % of control | [10] 100 % of control

NC(=O)/C(=C\c1ccc([N+](=O)[O-])o1)c1ccco1
inactive: dose: 55.0 mg/kg/injection, schedule: Q01DX Z (ip), vehicle: methylcellulose (MC) 93 % of control | dose: 83.0 mg/kg/injection, schedule: Q01DX Z (ip), vehicle: methylcellulose (MC) 98 % of control | dose: 125.0 mg/kg/injection, schedule: Q01DX Z (ip), vehicle: methylcellulose (MC) 100 % of control

IC1CCC(I)C2CCC1O2 (configuration not stated) (tested in a mixture with another compound)
inactive: [5] 106 % of control | [15] 106 % of control | [8] 101 % of control | [16] 104 % of control | [9] 98 % of control and 100 % of control | [17] 96 % of control | [10] 100 % of control

Cc1cc(C)c(C(=O)c2ccccc2C(=O)OC(=O)c2ccccc2C(=O)c2c(C)cc(C)cc2C)c(C)c1
inactive: [1] 88 % of control

Cc1c(O)ccc([N+](=O)[O-])c1O
inactive: dose: 6.25 mg/kg/injection, schedule: Q01DX009 (ip), vehicle: saline with Tween-80 93 % of control | dose: 12.5 mg/kg/injection, schedule: Q01DX009 (ip), vehicle: saline with Tween-80 97 % of control | dose: 25.0 mg/kg/injection, schedule: Q01DX009 (ip), vehicle: saline with Tween-80 97 % of control

O=C(Nc1ccccc1F)Oc1ccc(Cl)cc1Cl
inactive: [14] 114 % of control | [15] 111 % of control | [18] 105 % of control | [16] 102 % of control | [19] 102 % of control

N=C(N)c1ccc(-n2nc3ccc(C(=N)N)cc3n2)cc1
inactive: dose: 6.25 mg/kg/injection, schedule: Q04DX003 (ip), vehicle: saline 100 % of control and 103 % of control | dose: 12.5 mg/kg/injection, schedule: Q04DX003 (ip), vehicle: saline 100 % of control | dose: 25.0 mg/kg/injection, schedule: Q04DX003 (ip), vehicle: saline 100 % of control

O=C1c2ccccc2-c2cc(Cl)c(N=Cc3ccc4c(c3)OCO4)cc21
inactive: [6] 98 % of control | [7] 102 % of control | [20] 109 % of control

O=P(NO)(c1ccccc1)c1ccccc1
inactive: [6] 92 % of control | [7] 95 % of control | [20] 95 % of control

O=S(=O)(C1=C(c2ccccc2)CCCC1)c1ccccc1
inactive: dose: 100.0 mg/kg/injection, schedule: Q01DX009 (ip), vehicle: acetone 104 % of control

O=C(/C=C\c1ccc(Cl)cc1)c1ccccc1
inactive: [2] 91 % of control | [18] 89 % of control | dose: 100.0 mg/kg/injection, schedule: Q04DX002 (ip), vehicle: gum acacia 98 % of control | [3] 91 % of control | [19] 96 % of control | dose: 200.0 mg/kg/injection, schedule: Q04DX002 (ip), vehicle: gum acacia 95 % of control | [4] 86 % of control | [21] 96 % of control | dose: 400.0 mg/kg/injection, schedule: Q04DX002 (ip), vehicle: gum acacia 91 % of control

CCCCC(=O)N/N=C\c1c(O)cc(OC)cc1OC
inactive: [6] 87 % of control | [7] 87 % of control | [20] 93 % of control

c1ccc(CC23CCCCC2N3)cc1 (configuration not stated)
inactive: dose: 50.0 mg/kg/injection, schedule: Q01DX009 (ip), vehicle: saline with Tween-80 95 % of control

COc1ccc2c(c1)CC1(CC2)NCC(=O)NC1=O (configuration not stated)
inactive: [6] 97 % of control | [7] 97 % of control | [20] 115 % of control

CCOC(=O)Nc1cc(NC(=O)OCC)cc([N+](=O)[O-])c1
inactive: [11] 110 % of control | [12] 102 % of control | [13] 89 % of control

CC(=O)c1cccc(NC(=O)Nc2cccc(C)n2)c1
inactive: [15] 106 % of control | [16] 102 % of control | [17] 101 % of control

O=[N+]1c2ccccc2N([O-])C2CCCCC21 (configuration not stated)
inactive: [18] 93 % of control | [19] 93 % of control | [21] 104 % of control

CCCCCCCNC(=S)NNC(=O)c1ccncc1
inactive: [15] 97 % of control | [16] 100 % of control | [17] 100 % of control

Cc1no[n+]([O-])c1C(=O)N(C)C
inactive: dose: 25.0 mg/kg/injection, schedule: Q04DX002 (ip), vehicle: Klucel (hydroxypropylcellulose) (HPC) 95 % of control | dose: 50.0 mg/kg/injection, schedule: Q04DX002 (ip), vehicle: Klucel (hydroxypropylcellulose) (HPC) 95 % of control | [18] 95 % of control
